Active and inactive are the calls of the source. No cut-off for these calls is given here.
Experiments:
Leishmania donovani [1] = assay: Antimicrobial activity against promastigote stage of Leishmania donovani infected in human THP1 cells after 72 hrs by Alamar Blue assay; type: functional, organism-based
Leishmania donovani [2] = assay: Antimicrobial activity against promastigote stage of Leishmania donovani after 72 hrs by Alamar Blue assay; type: functional, organism-based
Trypanosoma brucei = assay: Antimicrobial activity against trypamastigote stage of Trypanosoma brucei after 72 hrs by Alamar Blue assay; type: functional, organism-based
Leishmania donovani [3] = assay: Antimicrobial activity against axenic amastigote stage of Leishmania donovani after 72 hrs by Alamar Blue assay; type: functional, organism-based
LLC-PK1 = assay: Cytotoxicity against pig LLC-PK1 cells up to 25 ug/ml after 48 hrs by neutral red assay; type: cell-based, Sus scrofa; settings: llc-pk1, 48 h
HepG2 [4] = assay: Cytotoxicity against human HepG2 cells up to 25 ug/ml after 48 hrs by neutral red assay; type: cell-based; settings: hepg2, 48 h
THP-1 = assay: Cytotoxicity against human THP1 cells up to 10 ug/ml after 48 hrs by neutral red assay; type: cell-based; settings: thp-1, 48 h
Vero = assay: Cytotoxicity against African green monkey Vero cells up to 25 ug/ml after 48 hrs by neutral red assay; type: cell-based; settings: chlorocebus sabaeus
Leishmania infantum [5] = assay: Antimicrobial activity against amastigote stage of Leishmania infantum; type: functional, organism-based
Leishmania infantum [6] = assay: Antimicrobial activity against promastigote stage of Leishmania infantum; type: functional, organism-based
Trypanosoma cruzi = assay: Antimicrobial activity against epimastigote stage of Trypanosoma cruzi Y; type: functional, organism-based
HepG2 [7] = assay: Cytotoxicity against human HepG2 cells after 48 hrs by neutral red assay; type: cell-based; settings: HepG2, 48 h
[8] = Leishmania donovani, 72 h, read-out: IC50
[9] = Trypanosoma brucei, 72 h, read-out: IC50
[10] = Leishmania donovani, THP-1, 72 h
[11] = Leishmania donovani, THP-1, 72 h, read-out: IC50

| SMILES | IC90 (Leishmania donovani [1]; THP-1) | IC50 (Leishmania donovani [1]; thp-1) | IC50 (Trypanosoma brucei) | IC90 (Trypanosoma brucei) | IC50 (Leishmania donovani [3]) | IC90 (Leishmania donovani [3]) | Activity (LLC-PK1) | Activity (HepG2 [4]) | Activity (THP-1) | Activity (Vero) | IC50 (Leishmania donovani [2]; [8]) | IC50 (Trypanosoma brucei; [9]) | IC50 (Leishmania donovani [3]; [8]) | other results |
| --- | --- | --- | --- | --- | --- | --- | --- | --- | --- | --- | --- | --- | --- | --- |
| c1ccc2nc(CN3CCc4c([nH]c5ccccc45)C3)ccc2c1 | inactive | Not Active | Not Active | inactive | Not Active | inactive | – | – | – | – | – | – | – | IC50 (Leishmania donovani [2]): Not Active; IC90 (Leishmania donovani [2]): inactive |
| Cc1ccsc1C(=O)N1CCc2c([nH]c3ccccc23)C1 | inactive | Not Active | Not Active | inactive | Not Active | inactive | Non-toxic | Non-toxic | Non-toxic | Non-toxic | 26 µM | – | – | – |
| Clc1ccc(CN2CCc3c([nH]c4ccccc34)C2)s1 | inactive | Not Active | – | – | Not Active | inactive | Non-toxic | Non-toxic | Non-toxic | Non-toxic | 9.1 µM | 8.9 µM | – | IC90 (Leishmania donovani [2]; Leishmania donovani, 72 h): 25.6 µM; IC90 (Trypanosoma brucei; Trypanosoma brucei, 72 h): 14.5 µM |
| O=C1NCCN1C(=O)N1CCc2c([nH]c3ccccc23)C1 | inactive | Not Active | Not Active | inactive | Not Active | inactive | – | – | – | – | – | – | – | IC50 (Leishmania donovani [2]): Not Active; IC90 (Leishmania donovani [2]): inactive |
| O=C(c1ccc(Br)o1)N1CCc2c([nH]c3ccccc23)C1 | inactive | Not Active | – | – | – | – | Non-toxic | Non-toxic | Non-toxic | Non-toxic | 27.5 µM | 13.7 µM | 96.5 µM | IC90 (Trypanosoma brucei; Trypanosoma brucei, 72 h): 23.9 µM; IC90 (Leishmania donovani [3]; Leishmania donovani, 72 h): 122 µM |
| O=C(c1ccc2ccccc2n1)N1CCc2c([nH]c3ccccc23)C1 | inactive | Not Active | Not Active | inactive | Not Active | inactive | – | – | – | – | – | – | – | IC50 (Leishmania donovani [2]): Not Active; IC90 (Leishmania donovani [2]): inactive |
| c1ccc2[nH]c(CN3CCc4c([nH]c5ccccc45)C3)nc2c1 | inactive | Not Active | – | – | Not Active | inactive | Non-toxic | Non-toxic | Non-toxic | Non-toxic | 118 µM | 29.7 µM | – | – |
| Cc1nccc2c1[nH]c1ccccc12 [HARMAN] | – | – | – | – | – | – | – | – | – | – | 19.2 µM | – | 0.27 µM | IC50 (Leishmania infantum [5]): 0.27 µM; IC50 (Leishmania infantum [6]): 19.2 µM |
| O=C(c1ccc(-c2ccc(-c3ccccc3)cc2)o1)N1CCc2c([nH]c3ccccc23)C1 | inactive | Not Active | Not Active | inactive | – | – | Non-toxic | Non-toxic | Non-toxic | Non-toxic | 75.3 µM | – | 83.4 µM | IC90 (Leishmania donovani [2]; Leishmania donovani, 72 h): 111 µM; IC90 (Leishmania donovani [3]; Leishmania donovani, 72 h): 110 µM |
| O=C(c1cnccn1)N1CCc2c([nH]c3ccccc23)C1 | inactive | Not Active | Not Active | inactive | Not Active | inactive | – | – | – | – | – | – | – | IC50 (Leishmania donovani [2]): Not Active; IC90 (Leishmania donovani [2]): inactive |
| C[C@@H]1[C@H](O)[C@@H](C)/C=C/C=C/C=C/C=C/C=C/C=C/C=C/[C@H](O[C@@H]2O[C@H](C)[C@@H](O)[C@H](N)[C@@H]2O)C[C@@H]2O[C@](O)(C[C@@H](O)C[C@@H](O)[C@H](O)CC[C@@H](O)C[C@@H](O)CC(=O)O[C@H]1C)C[C@H](O)[C@H]2C(=O)O [AMPHOTERICIN B] | – | – | Not Active | inactive | – | – | – | – | – | – | 0.3 µM | – | 0.3 µM | IC90 (Leishmania donovani [1]; [10]): 0.5 µM; IC90 (Leishmania donovani [2]; Leishmania donovani, 72 h): 0.4 µM; IC90 (Leishmania donovani [3]; Leishmania donovani, 72 h): 0.4 µM |
| O=C(c1ccc(-c2cccc([N+](=O)[O-])c2)o1)N1CCc2c([nH]c3ccccc23)C1 | inactive | Not Active | Not Active | inactive | Not Active | inactive | Non-toxic | Non-toxic | Non-toxic | Non-toxic | 66.7 µM | – | – | – |
| c1ccc2c(CN3CCc4c([nH]c5ccccc45)C3)c3ccccc3cc2c1 | inactive | Not Active | – | – | – | – | Non-toxic | Non-toxic | Non-toxic | Non-toxic | 16 µM | 11 µM | 80.4 µM | IC90 (Leishmania donovani [2]; Leishmania donovani, 72 h): 76 µM; IC90 (Trypanosoma brucei; Trypanosoma brucei, 72 h): 18.8 µM; IC90 (Leishmania donovani [3]; Leishmania donovani, 72 h): 104 µM |
| Cc1noc(C)c1CN1CCc2c([nH]c3ccccc23)C1 | inactive | Not Active | – | – | Not Active | inactive | Non-toxic | Non-toxic | Non-toxic | Non-toxic | – | 15.9 µM | – | IC50 (Leishmania donovani [2]): Not Active; IC90 (Leishmania donovani [2]): inactive; IC90 (Trypanosoma brucei; Trypanosoma brucei, 72 h): 26.3 µM |
| NCCCC(N)(C(=O)O)C(F)F (stereo unspecified) [EFLORNITHINE] | – | – | – | – | – | – | – | – | – | – | – | 28 µM | – | IC90 (Trypanosoma brucei; Trypanosoma brucei, 72 h): 68.2 µM |
| N=C(N)c1ccc(OCCCCCOc2ccc(C(=N)N)cc2)cc1 [PENTAMIDINE] | – | – | – | – | – | – | – | – | – | – | 4.8 µM | 0.0041 µM | > 29.4 µM | IC90 (Leishmania donovani [1]; [10]): 3.1 µM; IC50 (Leishmania donovani [1]; [11]): 2 µM; IC90 (Leishmania donovani [2]; Leishmania donovani, 72 h): 6.1 µM; IC90 (Trypanosoma brucei; Trypanosoma brucei, 72 h): 0.007 µM; IC90 (Leishmania donovani [3]; Leishmania donovani, 72 h): > 29.4 µM |
| COc1ccc2c3c([nH]c2c1)C(C)=NCC3 [HARMALINE] | – | – | – | – | – | – | – | – | – | – | 117 µM | – | 1.16 µM | IC50 (Leishmania infantum [5]): 1.16 µM; IC50 (Leishmania infantum [6]): 117 µM |
| c1ccc2cc(CN3CCc4c([nH]c5ccccc45)C3)ccc2c1 | – | – | – | – | – | – | Non-toxic | Non-toxic | Non-toxic | Non-toxic | 22.1 µM | 10.2 µM | 87.6 µM | IC90 (Leishmania donovani [1]; [10]): > 32 µM; IC50 (Leishmania donovani [1]; [11]): 28.3 µM; IC90 (Leishmania donovani [2]; Leishmania donovani, 72 h): 28.1 µM; IC90 (Trypanosoma brucei; Trypanosoma brucei, 72 h): 17.6 µM |
| c1ccc2c3c([nH]c2c1)CN(Cc1ccncc1)CC3 | inactive | Not Active | – | – | Not Active | inactive | Non-toxic | Non-toxic | Non-toxic | Non-toxic | 121 µM | 26.2 µM | – | – |
| CN1CCN(C(=O)N2CCc3c([nH]c4ccccc34)C2)CC1 | inactive | Not Active | Not Active | inactive | Not Active | inactive | – | – | – | – | – | – | – | IC50 (Leishmania donovani [2]): Not Active; IC90 (Leishmania donovani [2]): inactive |
| O=C(c1cc2ccccc2o1)N1CCc2c([nH]c3ccccc23)C1 | inactive | Not Active | Not Active | inactive | – | – | Non-toxic | Non-toxic | Non-toxic | Non-toxic | 49.5 µM | – | 116 µM | IC90 (Leishmania donovani [2]; Leishmania donovani, 72 h): 120 µM |
| Cc1ncsc1C(=O)N1CCc2c([nH]c3ccccc23)C1 | inactive | Not Active | Not Active | inactive | Not Active | inactive | – | – | – | – | – | – | – | IC50 (Leishmania donovani [2]): Not Active; IC90 (Leishmania donovani [2]): inactive |
| Cn1cc(C(=O)N2CCc3c([nH]c4ccccc34)C2)c2ccccc21 | inactive | Not Active | Not Active | inactive | Not Active | inactive | Non-toxic | Non-toxic | Non-toxic | Non-toxic | 52.6 µM | – | – | – |
| CN1CCN(C(=O)c2cc3c4ccccc4n4c(=O)c5ccccc5c(n2)c34)CC1 | – | – | – | – | – | – | – | – | – | – | – | – | – | IC50 (Trypanosoma cruzi): 0.4 µM |
| O=C(c1ccc(-c2cc(C(F)(F)F)ccc2Cl)o1)N1CCc2c([nH]c3ccccc23)C1 | inactive | Not Active | Not Active | inactive | – | – | – | – | Non-toxic | – | 39.6 µM | – | 37.1 µM | IC90 (Leishmania donovani [2]; Leishmania donovani, 72 h): 69.1 µM; IC50 (HepG2 [7]): 25.5 µM; IC90 (Leishmania donovani [3]; Leishmania donovani, 72 h): 76 µM |
| O=[N+]([O-])c1ccc(CN2CCc3c([nH]c4ccccc34)C2)o1 | inactive | Not Active | – | – | – | – | Non-toxic | Non-toxic | Non-toxic | Non-toxic | 33.8 µM | 1 µM | 117 µM | IC90 (Trypanosoma brucei; Trypanosoma brucei, 72 h): 28.1 µM |
| O=C(N1CCOCC1)N1CCc2c([nH]c3ccccc23)C1 | inactive | Not Active | Not Active | inactive | Not Active | inactive | – | – | – | – | – | – | – | IC50 (Leishmania donovani [2]): Not Active; IC90 (Leishmania donovani [2]): inactive |
